From PMC8330735 (Journal of Enzyme Inhibition and Medicinal Chemistry, 2021)

Tests used:
[1] = system: carrageenan-induced rat paw oedema; test: Carrageenan-induced rat paw oedema test; format: in vivo; conditions: compounds and celecoxib 50 mg/kg, ibuprofen and indomethacin 20 mg/kg; for Mean oedema thickness 1h: 1 h after carrageenan; for Mean oedema thickness 1h / Mean oedema thickness 2h / Mean oedema thickness 3h / Mean oedema thickness 4h / Mean oedema thickness 5h / Mean oedema thickness 24h / Mean oedema thickness 0h: mean ± SEM, n = 5; for Mean oedema thickness 2h: 2 h after carrageenan; for Mean oedema thickness 3h: 3 h after carrageenan; for Mean oedema thickness 4h: 4 h after carrageenan; for Mean oedema thickness 5h: 5 h after carrageenan; for Mean oedema thickness 24h: 24 h after carrageenan; for Mean oedema thickness 0h: before carrageenan (0 h); for Average oedema inhibition%: from area under the curve of all time points
Method: The rats were divided into nine groups (n = 5/group). All tested compounds were suspended in 1% Tween-80. Group 1, controls, were given the vehicle (1% Tween80, 10 ml/kg). […] The rats were given the drugs 1 h before the injection of carrageenan solution (1% in 0.9% NaCl, 0.1 ml) (Sigma Aldrich, USA) in the sub-planter tissue of the right hind paw. The paw thickness (mm) was measured using a calliper before (0 h) and after carrageenan injection at 1, 2, 3, 4, 5 and 24 h. The inhibition of oedema thickness was calculated using the following formula (control– drug/control) × 100.

[2] = system: NO production in LPS-activated RAW 264.7 macrophages; test: NO production in LPS-activated RAW 264.7 macrophages (DAF-FM); format: cell-based; conditions: Mus musculus, RAW264.7; LPS 1 µg/mL activated RAW 264.7
Method: HCA7 colorectal cancer cell line was obtained from Sigma. […] Louis, MO) containing 10% heat-inactivated foetal bovine serum (HI-FBS) (Gibco, USA), 100 μg/mL streptomycin (Invitrogen, USA), and […] penicillin (Invitrogen, USA)[40]. HCA7 and RAW 264.7 cells were cultured in Dulbecco's minimal essential media (DMEM, Invitrogen) containing 10% HI-FBS, sodium pyruvate (1 mM), penicillin ([…]), and streptomycin (100 mg/m)[41]^,[42]. […] Molecular Probes, USA). Briefly, RAW 264.7 cells were cultured in black 96-well plates (200,000 cells/mL, 100 µl/well) for 24 h. […] The fluorescence intensity, which is directly proportional to NO levels, was quantified, as detailed in our previous study. IC50 values were calculated from the dose–response curves.

[3] = system: ROS production in LPS-activated RAW 264.7 macrophages; test: ROS production in LPS-activated RAW 264.7 macrophages (DCFH-DA); format: cell-based; conditions: Mus musculus, RAW264.7; LPS 1 µg/mL activated RAW 264.7
Method: HCA7 colorectal cancer cell line was obtained from Sigma. […] Louis, MO) containing 10% heat-inactivated foetal bovine serum (HI-FBS) (Gibco, USA), 100 μg/mL streptomycin (Invitrogen, USA), and […] penicillin (Invitrogen, USA)[40]. HCA7 and RAW 264.7 cells were cultured in Dulbecco's minimal essential media (DMEM, Invitrogen) containing 10% HI-FBS, sodium pyruvate (1 mM), penicillin ([…]), and streptomycin (100 mg/m)[41]^,[42]. […] The cells were cultured, incubated with the different test compounds, and activated with LPS (1 µg/mL) as detailed above. […] IC50 values were calculated from the dose–response curves.

[4] = system: HCT116 cells; test: MTS cell viability assay HCT116; format: cell-based; conditions: Homo sapiens, HCT-116, 48 h, cell line scarcely expressing COX-2
Method: (§1) Human colorectal cancer cell lines, HCT116 and HT29, and RAW 264.7 macrophages were obtained from ATCC (Manassas, VA). HCA7 colorectal cancer cell line was obtained from Sigma. HT29 and HCT116 cells were cultured in McCoy's 5 A medium (Sigma Aldrich, St. Louis, MO) containing 10% heat-inactivated foetal bovine serum (HI-FBS) (Gibco, USA), 100 μg/mL streptomycin (Invitrogen, USA), and […] penicillin (Invitrogen, USA)[40]. HCA7 and RAW 264.7 cells were cultured in Dulbecco's minimal essential media (DMEM, Invitrogen) containing 10% HI-FBS, sodium pyruvate (1 mM), penicillin ([…]), and streptomycin (100 mg/m)[41]^,[42].
(§2) Cells were cultured in 96‐well plates for 48 h and then treated with serum-free media containing different concentrations of the tested compounds (12.5, 25, 50, 100 and 150 µM). After 48 h., MTS reagent (Promega) was added as directed by the manufacturer, and then, the absorbance was measured at 495 nm. The absorbance is proportional to the number of viable cells. IC50 was calculated from the dose-response curves as described previously[45] using GraphPad Prism 8 software (GraphPad Software, San Diego, CA).

[5] = system: HT29 cells; test: MTS cell viability assay HT29; format: cell-based; conditions: Homo sapiens, HT-29, 48 h, cell line moderately expressing COX-2
Method: as §1, §2

[6] = system: HCA7 cells; test: MTS cell viability assay HCA7; format: cell-based; conditions: Homo sapiens, HCA-7, 48 h, cell line highly expressing COX-2
Method: as §1, §2

[7] = system: stomach ulceration in rats; test: Gastric acute ulcerogenic activity; conditions: rat, n = 5; for Ulcer Index (UI): UI = UN + US + UP×10^−1
Method: The rats from the previous experiment were fasted for 12 h., followed by the administration of additional doses of the selected compounds or the two references for two consecutive days. Six hrs after the last treatment, the animals were sacrificed, and their stomachs were removed, washed with saline solution (0.9%) and examined for ulceration using a magnifying lens. The ulcer scores were estimated according to the method prescribed by Kulkarni and as detailed in our previous studies[36–38]. The following scores were individually assigned to each lesion: normal coloured stomach, 0; red colouration, 0.5; spot ulcers, 1; haemorrhagic streaks, 1.5; ulcer >3 but <5 mm, 2; and ulcers >5 mm, 3.

[8] = target: T1, ovine COX-1 (Ovis aries, UniProt P05979); test: In vitro COX-1 inhibitory assay (colorimetric Cayman kit)
T1 sequence (P05979 25-600): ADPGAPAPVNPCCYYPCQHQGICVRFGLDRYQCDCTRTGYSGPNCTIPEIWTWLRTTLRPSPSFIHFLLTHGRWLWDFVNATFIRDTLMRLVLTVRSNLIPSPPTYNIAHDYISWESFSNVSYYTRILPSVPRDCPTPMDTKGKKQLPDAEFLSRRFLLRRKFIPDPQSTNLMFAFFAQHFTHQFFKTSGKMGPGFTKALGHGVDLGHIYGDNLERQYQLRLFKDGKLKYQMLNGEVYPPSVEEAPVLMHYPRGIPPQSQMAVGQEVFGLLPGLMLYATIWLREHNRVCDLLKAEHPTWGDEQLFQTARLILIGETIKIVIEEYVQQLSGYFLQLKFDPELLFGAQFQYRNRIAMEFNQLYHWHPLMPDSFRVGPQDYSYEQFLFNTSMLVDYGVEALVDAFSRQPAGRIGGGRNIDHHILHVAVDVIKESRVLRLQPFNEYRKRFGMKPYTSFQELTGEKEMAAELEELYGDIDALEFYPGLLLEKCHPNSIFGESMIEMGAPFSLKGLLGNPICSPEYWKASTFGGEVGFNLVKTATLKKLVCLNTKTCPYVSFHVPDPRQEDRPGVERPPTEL
Method: (§3) All the newly synthesised compounds were tested for their ability to inhibit COX-1 and COX-2 enzymes using a screening assay method.

[9] = target: T2, human recombinant COX-2 (Homo sapiens, UniProt P35354); test: In vitro COX-2 inhibitory assay (colorimetric Cayman kit); conditions: for Selectivity Index (SI): COX-1 IC50/COX-2 IC50
T2 sequence (P35354 18-604): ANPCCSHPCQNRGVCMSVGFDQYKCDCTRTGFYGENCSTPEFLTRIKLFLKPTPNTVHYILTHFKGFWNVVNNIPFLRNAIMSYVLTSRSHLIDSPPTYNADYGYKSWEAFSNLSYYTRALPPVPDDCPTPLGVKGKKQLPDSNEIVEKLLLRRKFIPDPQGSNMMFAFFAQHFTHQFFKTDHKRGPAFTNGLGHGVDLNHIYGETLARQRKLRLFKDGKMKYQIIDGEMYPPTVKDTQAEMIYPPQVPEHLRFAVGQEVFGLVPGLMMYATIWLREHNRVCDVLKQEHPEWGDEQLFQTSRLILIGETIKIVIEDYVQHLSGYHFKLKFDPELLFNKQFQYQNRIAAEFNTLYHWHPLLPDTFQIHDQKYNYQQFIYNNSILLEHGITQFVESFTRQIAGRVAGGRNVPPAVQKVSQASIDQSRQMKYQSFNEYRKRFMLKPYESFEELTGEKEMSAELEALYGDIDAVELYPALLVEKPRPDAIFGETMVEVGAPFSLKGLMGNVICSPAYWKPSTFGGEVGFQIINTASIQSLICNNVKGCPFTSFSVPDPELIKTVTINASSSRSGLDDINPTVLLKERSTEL
Method: as §3

SMILES	Mean oedema thickness 1h [1] [mm]	Mean oedema thickness 2h [1] [mm]	Mean oedema thickness 3h [1] [mm]	Mean oedema thickness 4h [1] [mm]	Mean oedema thickness 5h [1] [mm]	Mean oedema thickness 24h [1] [mm]	Mean oedema thickness 0h [1] [mm]	Average oedema inhibition% [1] [%]	IC50 [2] [µM]	IC50 [3] [µM]	IC50 [4] [µM]	IC50 [5] [µM]	IC50 [6] [µM]	Average Ulcer number [7]	Lesion Incidence (%) [7] [%]	Number of rats with ulcer [7]	IC50 [8] [µM]	IC50 [9] [µM]	Selectivity Index (SI) [9]	melting point [°C]	further results
CN1c2ccccc2C(=O)N(NC(=O)Cc2c[nH]c3ccccc23)C1c1ccc(Cl)cc1 (stereo not shown) [4a, N-(2-(4-chlorophenyl)-1-methyl-4-oxo-1,4-dihydroquinazolin-3(2H)-yl)-2-(1H-indol-3-yl)acetamide]	2.67 ± 0.24	2.90 ± 0.33	2.14 ± 0.25	2.04 ± 0.24	1.39 ± 0.06	0.54 ± 0.21	0.00 ± 0.00	33.40	31.5 ± 1.08	29.7 ± 1.07	75.35 ± 0.1	15.42 ± 0.06	137.3 ± 0.08	1.6	60	3	12.68 ± 0.11	0.04 ± 0.08	317.00	–	–
CN1c2ccccc2C(=O)N(NC(=O)Cc2c[nH]c3ccccc23)C1c1ccc([N+](=O)[O-])cc1 (stereo not shown) [4b, 2-(1 h-indol-3-yl)-N-(1-methyl-2-(4-nitrophenyl)-4-oxo-1,4dihydroquinazolin-3(2H)-yl)acetamide]	1.39 ± 0.09	1.89 ± 0.25	1.70 ± 0.17	1.14 ± 0.22	1.42 ± 0.28	0.16 ± 0.08	0.00 ± 0.00	49.47	32.2 ± 1.32	24.5 ± 2.06	> 150	66.67 ± 0.07	> 150	0.8	20	1	6.93 ± 0.15	0.07	99.00	239 to 243	Ulcer Index (UI) [7]: 3
O=C(CSc1nc2ccccc2c(=O)n1NC(=O)Cc1ccccc1)NNC(=O)c1ccccc1 [14c, N-(2-((2-(2-benzoylhydrazinyl)-2-oxoethyl)thio)-4-oxoquinazolin-3(4H)-yl)-2-phenylacetamide]	3.02 ± 0.35	2.89 ± 0.13	2.42 ± 0.18	2.37 ± 0.19	2.34 ± 0.23	0.57 ± 0.09	0.00 ± 0.00	31.86	13 ± 1.36	16.2 ± 1.3	> 150	> 150	> 150	0.8	40	2	15.4 ± 0.17	0.04	359.74	235 to 240	Ulcer Index (UI) [7]: 5.3
